# Results: US10219516B2, “Molecules having pesticidal utility, and intermediates, compositions, and processes, related thereto” (priority 2015, dated 2019)
# Read-outs that look alike come from different tables or passages of the source.
# Columns and labels:
# Format in all cases: in vivo
# [1] = test system: Beet Armyworm (Spodoptera exigua, LAPHEG); assay: Bioassay on Beet Armyworm (BAW), 128-well diet tray assay
# Outline: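 Second instar larvae were exposed to diet treated at 50 μg/cm^2 for five to seven days at 25° C.; mortality was averaged over eight wells.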
# [2] = test system: Cabbage Looper (Trichoplusia ni, TRIPNI); assay: Bioassay on Cabbage Looper (CL), 128-well diet tray assay; settings: Trichoplusia ni
# Outline: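 Using eight wells per molecule, artificial diet was dosed at 50 μg/cm^2 with compound in 90:10 acetone-water and dried before one to five second-instar larvae were added per well. Covered vented trays were kept at 25° C. with 14:10 light-dark for five to seven days, then per-well percent mortality was recorded and averaged.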
# [3] = test system: Green Peach Aphid (Myzus persicae, MYZUPE); assay: Bioassay on Green Peach Aphid (GPA), foliar spray on infested cabbage seedlings; settings: 72 h
# Outline: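 Cabbage seedlings (2-3 true leaves) infested with 20-50 wingless adult and nymph aphids one day before treatment; sprayed to runoff at 200 ppm in 0.025% Tween 20 water with 20% acetone/methanol, four pots per treatment. Held three days at about 25° C; live aphids counted, % control by Abbott's correction versus solvent check.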
# [4] = test system: Yellow Fever Mosquito (Aedes aegypti, AEDSAE); assay: Bioassay on Yellow Fever Mosquito (YFM), 96-well plate larval assay; settings: for YFM (Biological Results, rating): Species YFM (Yellow Fever Mosquito); for YFM rating: Yellow Fever Mosquito, 96-well plate larval assay
# Outline: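 Each well was scored for mortality after 3 days at room temperature under a non-evaporative lid. Test molecules came from DMSO masters (4000 ppm stock) diluted with water/acetone 90:10 and dispensed into six replicate plates, which were then infested with roughly 1-day-old larvae in liver-powder water.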
# [5] = Species BAW (Beet Armyworm), read-out: BAW (Biological Results, rating)
# [6] = Species CL (Cabbage Looper), read-out: CL (Biological Results, rating)
# [7] = foliar, Species GPA (Green Peach Aphid), read-out: GPA (Biological Results, rating)
# [8] = Beet Armyworm, 128-well diet tray assay, read-out: BAW rating
# [9] = Cabbage Looper, 128-well diet tray assay, read-out: CL rating
# [10] = Green Peach Aphid, foliar spray on cabbage seedlings, read-out: GPA rating
smiles,measurement,setting,value
"O=C(Nc1cccc(F)c1)c1cc(NC(=O)[C@H]2[C@H](c3cc(Cl)c(Cl)c(Cl)c3)C2(Cl)Cl)ccc1Cl (relative stereo) [F50, trans-2-Chloro-5-(2,2-dichloro-3-(3,4,5-trichlorophenyl)cyclopropane-1-carboxamido)-N-(3-fluorophenyl)benzamide]",pest or weed control at 50 µg/cm2,[1]; [5],50 to 100%
same,pest or weed control at 50 µg/cm2,[2]; [6],50 to 100%
same,pest or weed control at 200 µg/mL,[3]; [7],0 to 80%
same,"YFM (Biological Results, rating)",[4],A (80-100)
"CCc1cccc(C)c1NC(=O)c1cc(NC(=O)[C@H]2[C@H](c3cc(Cl)cc(Cl)c3)C2(Cl)Cl)ccc1Cl (relative stereo) [F42, trans-2-Chloro-5-(2,2-dichloro-3-(3,5-dichlorophenyl)cyclopropane-1-carboxamido)-N-(2-ethyl-6-methylphenyl)benzamide]",pest or weed control at 50 µg/cm2,[1]; [5],50 to 100%
same,pest or weed control at 50 µg/cm2,[2]; [6],50 to 100%
same,pest or weed control at 200 µg/mL,[3]; [7],0 to 80%
same,"YFM (Biological Results, rating)",[4],A (80-100)
"CN(C(=O)c1cc(NC(=O)[C@H]2[C@H](c3cc(Cl)cc(Cl)c3)C2(Cl)Cl)ccc1Cl)c1ccccc1F (relative stereo) [F35, trans-2-Chloro-5-(2,2-dichloro-3-(3,5-dichlorophenyl)cyclopropane-1-carboxamido)-N-(2-fluorophenyl)-N-methylbenzamide]",pest or weed control at 50 µg/cm2,[1]; [5],50 to 100%
same,pest or weed control at 50 µg/cm2,[2]; [6],50 to 100%
same,pest or weed control at 200 µg/mL,[3]; [7],80 to 100%
same,"YFM (Biological Results, rating)",[4],A (80-100)
"O=C(Nc1ccc(F)cc1)c1cccc(NC(=O)[C@H]2[C@H](c3cc(Cl)cc(Cl)c3)C2(Cl)Cl)c1 (relative stereo) [F2, trans-3-(2,2-Dichloro-3-(3,5-dichlorophenyl)cyclopropane-1-carboxamido)-N-(4-fluorophenyl)benzamide]",pest or weed control at 50 µg/cm2,[1]; [5],50 to 100%
same,pest or weed control at 50 µg/cm2,[2]; [6],50 to 100%
same,pest or weed control at 200 µg/mL,[3]; [7],0 to 80%
same,"YFM (Biological Results, rating)",[4],A (80-100)
"O=C(Nc1c(F)cccc1F)c1cc(NC(=O)[C@H]2[C@H](c3cc(Cl)cc(Cl)c3)C2(Br)Br)ccc1Cl (relative stereo) [F162, trans-2-Chloro-5-(2,2-dibromo-3-(3,5-dichlorophenyl)cyclopropane-1-carboxamido)-N-(2,6-difluorophenyl)benzamide]",pest or weed control at 50 µg/cm2,[1]; [5],50 to 100%
same,pest or weed control at 50 µg/cm2,[2]; [6],50 to 100%
same,pest or weed control at 200 µg/mL,[3]; [7],0 to 80%
same,"YFM (Biological Results, rating)",[4],B (More than 0-Less than 80)
"O=C(Nc1ccc(F)cc1F)c1cc(NC(=O)[C@H]2[C@H](c3cc(F)cc(C(F)(F)F)c3)C2(Cl)Cl)ccc1Cl (relative stereo) [F412, 2-Chloro-5-(trans)-(2,2-dichloro-3-(3-fluoro-5-(trifluoromethyl)phenyl)cyclopropane-1-carboxamido)-N-(2,4-difluorophenyl)benzamide]",pest or weed control at 50 µg/cm2,[1]; [8],50 to 100%
same,pest or weed control at 50 µg/cm2,[2]; [9],50 to 100%
same,pest or weed control at 200 µg/mL,[3]; [10],80 to 100%
same,YFM rating,[4],A (80-100)
"O=C(Nc1ccc(F)cc1C(F)(F)F)c1cc(NC(=O)[C@H]2[C@H](c3cc(Cl)cc(Cl)c3)C2(Cl)Cl)ccc1Cl (relative stereo) [PF69, trans-2-chloro-5-(2,2-dichloro-3-(3,5-dichlorophenyl)cyclopropane-1-carboxamido)-N-(4-fluoro-2-(trifluoromethyl)phenyl)benzamide]",pest or weed control at 50 µg/cm2,[1]; [8],50 to 100%
same,pest or weed control at 50 µg/cm2,[2]; [9],50 to 100%
same,pest or weed control at 200 µg/mL,[3]; [10],80 to 100%
same,YFM rating,[4],B (More than 0-Less than 80)
"O=C(Nc1ccc2nc(Cl)[nH]c2c1)c1cc(NC(=O)C2C(c3cc(Cl)cc(Cl)c3)C2(Cl)Cl)ccc1Cl (stereo not drawn) [F438, 2-Chloro-N-(2-chloro-1H-benzo[d]imidazol-6-yl)-5-(trans)-2,2-dichloro-3-(3,5-dichlorophenyl)cyclopropane-1-carboxamido)benzamide]",pest or weed control at 50 µg/cm2,[1]; [8],50 to 100%
same,pest or weed control at 50 µg/cm2,[2]; [9],50 to 100%
same,pest or weed control at 200 µg/mL,[3]; [10],0 to 80%
same,YFM rating,[4],B (More than 0-Less than 80)
"O=C(Nc1cccc(F)c1F)c1cc(NC(=O)[C@H]2[C@H](c3cc(Cl)cc(Cl)c3)C2(Cl)Cl)ccc1Cl (relative stereo) [F22, trans-2-Chloro-5-(2,2-dichloro-3-(3,5-dichlorophenyl)cyclopropane-1-carboxamido)-N-(2,3-difluorophenyl)benzamide]",pest or weed control at 50 µg/cm2,[1]; [5],50 to 100%
same,pest or weed control at 50 µg/cm2,[2]; [6],50 to 100%
same,pest or weed control at 200 µg/mL,[3]; [7],80 to 100%
same,"YFM (Biological Results, rating)",[4],A (80-100)
"O=C(Nc1cccc(C(F)(F)F)c1)c1cc(NC(=O)[C@H]2[C@H](c3cc(Cl)cc(Cl)c3)C2(Cl)Cl)ccc1Cl (relative stereo) [PF71, trans-2-Chloro-5-(2,2-dichloro-3-(3,5-dichlorophenyl)cyclopropane-1-carboxamido)-N-(3-(trifluoromethyl)phenyl)benzamide]",pest or weed control at 50 µg/cm2,[1]; [8],50 to 100%
same,pest or weed control at 50 µg/cm2,[2]; [9],50 to 100%
same,pest or weed control at 200 µg/mL,[3]; [10],0 to 80%
same,YFM rating,[4],A (80-100)
O=C(Nc1ccc(F)cc1F)c1cc(NC(=O)[C@H]2[C@H](c3ccc(F)c(Cl)c3)C2(Cl)Cl)ccc1Cl [F533],pest or weed control at 50 µg/cm2,[1]; [8],50 to 100%
same,pest or weed control at 50 µg/cm2,[2]; [9],50 to 100%
same,pest or weed control at 200 µg/mL,[3]; [10],80 to 100%
same,YFM rating,[4],A (80-100)
"O=C(Nc1ccc(F)cc1F)c1cc(NC(=O)[C@H]2[C@H](c3cc(F)cc(Br)c3)C2(Cl)Cl)ccc1Cl (relative stereo) [F423, 5-(trans)-(3-(3-Bromo-5-fluorophenyl)-2,2-dichlorocyclopropane-1-carboxamido)-2-chloro-N-(2,4-difluorophenyl)benzamide]",pest or weed control at 50 µg/cm2,[1]; [8],50 to 100%
same,pest or weed control at 50 µg/cm2,[2]; [9],50 to 100%
same,pest or weed control at 200 µg/mL,[3]; [10],80 to 100%
same,YFM rating,[4],A (80-100)
"CN(C(=O)c1cc(NC(=O)[C@H]2[C@H](c3cc(Cl)cc(Cl)c3)C2(Cl)Cl)ccc1F)c1cccc(F)c1 (relative stereo) [F46, trans-5-(2,2-Dichloro-3-(3,5-dichlorophenyl)cyclopropane-1-carboxamido)-2-fluoro-N-(3-fluorophenyl)-N-methylbenzamide]",pest or weed control at 50 µg/cm2,[1]; [5],50 to 100%
same,pest or weed control at 50 µg/cm2,[2]; [6],50 to 100%
same,pest or weed control at 200 µg/mL,[3]; [7],0 to 80%
same,"YFM (Biological Results, rating)",[4],A (80-100)
"O=C(Nc1cnc2[nH]ccc2c1)c1cc(NC(=O)[C@H]2[C@H](c3cc(Cl)cc(Cl)c3)C2(Cl)Cl)ccc1Cl (relative stereo) [F481, 2-Chloro-5-(trans)-(2,2-dichloro-3-(3,5-dichlorophenyl)cyclopropane-1-carboxamido)-N-(1H-pyrrolo[2,3-b]pyridin-5-yl)benzamide]",pest or weed control at 50 µg/cm2,[1]; [8],50 to 100%
same,pest or weed control at 50 µg/cm2,[2]; [9],50 to 100%
same,pest or weed control at 200 µg/mL,[3]; [10],0 to 80%
same,YFM rating,[4],A (80-100)
"O=C(Nc1c(F)cccc1F)c1cc(NC(=O)[C@H]2[C@H](c3cc(Cl)cc(Cl)c3)C2(Cl)Cl)ccc1Cl (relative stereo) [F25, trans-2-Chloro-5-(2,2-dichloro-3-(3,5-dichlorophenyl)cyclopropane-1-carboxamido)-N-(2,6-difluorophenyl)benzamide]",pest or weed control at 50 µg/cm2,[1]; [5],50 to 100%
same,pest or weed control at 50 µg/cm2,[2]; [6],50 to 100%
same,pest or weed control at 200 µg/mL,[3]; [7],80 to 100%
same,"YFM (Biological Results, rating)",[4],A (80-100)
"C#CCN(C(=O)c1cc(NC(=O)[C@H]2[C@H](c3ccc(F)c(Cl)c3)C2(Cl)Cl)ccc1Cl)c1ccc(F)cc1F [F414, 2-Chloro-5-((1R,3R)-2,2-dichloro-3-(3-chloro-4-fluorophenyl)cyclopropane-1-carboxamido)-N-(2,4-difluorophenyl)-N-(prop-2-yn-1-yl)benzamide]",pest or weed control at 50 µg/cm2,[1]; [8],50 to 100%
same,pest or weed control at 50 µg/cm2,[2]; [9],50 to 100%
same,pest or weed control at 200 µg/mL,[3]; [10],80 to 100%
same,YFM rating,[4],A (80-100)
"O=C(Nc1cccnc1)c1cc(NC(=O)[C@H]2[C@H](c3cc(Cl)cc(Cl)c3)C2(Cl)Cl)ccc1Cl (relative stereo) [F27, trans-2-Chloro-5-(2,2-dichloro-3-(3,5-dichlorophenyl)cyclopropane-1-carboxamido)-N-(pyridin-3-yl)benzamide]",pest or weed control at 50 µg/cm2,[1]; [5],50 to 100%
same,pest or weed control at 50 µg/cm2,[2]; [6],50 to 100%
same,pest or weed control at 200 µg/mL,[3]; [7],0 to 80%
same,"YFM (Biological Results, rating)",[4],A (80-100)
"COCC(=O)N(C)c1ccc(NC(=O)c2cc(NC(=O)[C@H]3[C@H](c4cc(Cl)cc(Cl)c4)C3(Cl)Cl)ccc2Cl)cc1 (relative stereo) [PF31, trans-2-Chloro-5-(2,2-dichloro-3-(3,5-dichlorophenyl)cyclopropane-1-carboxamido)-N-(4-(2-methoxy-N-methylacetamido)phenyl)benzamide]",pest or weed control at 50 µg/cm2,[1]; [8],50 to 100%
same,pest or weed control at 50 µg/cm2,[2]; [9],50 to 100%
same,pest or weed control at 200 µg/mL,[3]; [10],0 to 80%
same,YFM rating,[4],B (More than 0-Less than 80)
"O=C(Nc1ccc(F)cc1)c1cc(NC(=O)[C@H]2[C@H](c3ccc(OC(F)(F)F)c(Cl)c3)C2(Cl)Cl)ccc1Cl (relative stereo) [F79, trans-2-Chloro-5-(2,2-dichloro-3-(3-chloro-4-(trifluoromethoxy)phenyl)cyclopropane-1-carboxamido)-N-(4-fluorophenyl)benzamide]",pest or weed control at 50 µg/cm2,[1]; [5],50 to 100%
same,pest or weed control at 50 µg/cm2,[2]; [6],50 to 100%
same,pest or weed control at 200 µg/mL,[3]; [7],80 to 100%
same,"YFM (Biological Results, rating)",[4],B (More than 0-Less than 80)
